“Also recorded” adds a separate entry of the source.
Assays:
lacunar tonsillitis = experiment: open randomized comparative trial in lacunar tonsillitis; type: in vivo, human; details: 90 mg per day for 5 days with standard therapy
Protocol: The effectiveness of glutaryl histamine for the treatment of lacunar tonsillitis was studied in an open randomized and comparative trial.
The trial included 60 patients which were under medical supervision. When admitted to hospital, patients were randomized into two groups by a random sampling technique. The patients of the first group (30 subjects) received glutaryl histamine in an amount of 90 mg (1 pill) per day for 5 days (450 mg course dose) and standard therapy comprising antibacterial medicaments (penicillin 1 g I.M. 4 times a day or cefasoline 1 g I.M. 3 times a day for 7 days) and nosotropic agents. The patients of the second group (30 subjects) received only standard therapy.
Laboratory analysis included: general blood test, determination of C-reactive protein, and microbiological analysis of tonsil smears. Laboratory data were analyzed on day 6 of the treatment. […]
Statistical treatment of the obtained results. Values of quantitative variables were expressed as M±SE, wherein M is a mean value, and SE is a standard error of the mean. […]

[1] = test system: acute respiratory distress syndrome (ARDS); experiment: ARDS model, multiple-dose intravenous LPS (LD30); type: in vivo, rat; details: for Died: total number 24
Protocol: Since an intravenous administration of lipopolysaccharide (LPS) to animals is one of the most acceptable models for studying the pathogenesis, pathomorphological changes and consequences of acute respiratory distress syndrome, this model was used in this example. Tested medicament glutaryl histamine was administered for 9 days after the first administration of LPS, i.e. glutaryl histamine was administered for 12 days in total (3 days before the induction of ARDS and 9 days during and after the induction). The exception was dexamethasone since, according to the literature data and the information leaflet, long-time administration of steroidal anti-inflammatory agents can cause severe side effects. For this reason, dexamethasone was administered according to the following schedule: 49, 24 and 1 hour before the induction of ARDS in a dose of 5 mg/kg, for 3 days after the first injection of LPS in the same dose; the medicament was withdrawn by a gradual dose reduction for 3 days. Thus, dexamethasone was administered 9 times.
At this step, animals were administered LPS at more lower dose, but for longer time period. They were received 2 mg/kg on days 1 and 2, and 3 and 4 mg/kg on days 3 and 4, respectively. The maximum mortality rate, similarly to the single-dose administration of LD70, was on the first day. On eighth day, mortality reached 33%.
The second step of the experiment comprises the evaluation of both the mortality rate of the animals with calculation of the protective index and narrower indexes used for determination of a specific protection provided by glutaryl histamine in ARDS. As was disclosed above, a lower dose of LPS (LD30) was used at the second stage. In addition, LPS was administered every day for 4 days. This method of administration was aimed at achieving the maximum disorder exactly in the lung for subsequent evaluation of possible protective action of glutaryl histamine.

[2] = test system: Staphylococcus aureus (mouse-adapted strain 10); experiment: animal or person; type: in vivo, mice; details: for Mortality rate (%) / Survival rate (%): tenth day
Protocol: The tested medicament was glutaryl histamine in doses of 15, 30 and 45 mg/kg. Solutions of the tested medicament for oral administration were prepared ex tempore. Levofloxacin (in oral administration) was used as a therapeutic preparation since this substance was the most experimentally studied antibiotic approved in clinical practice many years ago.
Staphylococcus aureus (mouse-adaptedstrain 10) was used as an infectious agent. Mice were infected intravenously.
Firstly, there was determined a lethal dose (LD100) of staphylococcus to be intravenously administered to this line of mice having a certain weight. Fatal cases among mice were registered every day for ten days. The lethal dose was 3×10^8 CFU/mouse. […] For this purpose, mice were housed into cages (10 animals per cage) and infected with a lethal dose of staphylococcus. One hour after each mouse was administered orally levofloxacin in doses of 1, 2, 4, 6, 8, 10, and 12 mg/kg. A group of mice infected with a lethal dose of staphylococcus without the treatment was considered as a control group. Fatal cases among mice were registered every day for ten days.
The next step of the experiment was to study an effect of combined administration of glutaryl histamine and levofloxacin on a model of staphylococcal sepsis in mice.
In the experiment, mice were housed in following groups (10 animals per cage):
Glutaryl histamine was administered orally in the corresponding doses to the mice of groups 3, 4, 5, 6, 7, and 8 for 5 days. Five day after, all groups of mice were intravenously administered with 0.2 ml of Staphylococcus aureus in the lethal dose. […] After infection and administration of levofloxacin, glutaryl histamine was administered to mice of groups 3-8 for additional 5 days. During the experiment, the animals were observed every day, and fatal cases were registered (see Table 13).

O=C(O)CCCC(=O)NCCc1c[nH]cn1 [glutaryl histamine] was tested, and the “tolerability / undesirable symptoms” value (lacunar tonsillitis) was “well tolerated; also recorded: none of the cases had undesirable symptoms”, the “IP (%) (protective index)” value ([1]; Glutaryl histamine 0.5 mg/kg) was 62.5% and the “M (%) (mortality rate)” value ([1]; Glutaryl histamine 0.5 mg/kg) was 12.5%. For the same compound, the “S (%) (survival rate)” value ([1]; Glutaryl histamine 0.5 mg/kg) was 87.5%, the Died ([1]; Glutaryl histamine 0.5 mg/kg) was 3 and the “IP (%) (protective index)” value ([1]; Glutaryl histamine 27 mg/kg) was 75%. The “M (%) (mortality rate)” value ([1]; Glutaryl histamine 27 mg/kg) was 8.3%, the “S (%) (survival rate)” value ([1]; Glutaryl histamine 27 mg/kg) was 91.7% and the “IP (%) (protective index)” value ([1]; Glutaryl histamine 27 mg/kg, listed as Glutaryl histamine) was 75.0%. For the same compound, the Died ([1]; Glutaryl histamine 27 mg/kg) was 2, the died/survived animals ([2]; day 1, glutaryl histamine 15 mg/kg) was 0/10 and the died/survived animals ([2]; day 1, glutaryl histamine 30 mg/kg) was 0/10. The died/survived animals ([2]; day 1, glutaryl histamine 45 mg/kg) was 0/10, the died/survived animals ([2]; day 2, glutaryl histamine 15 mg/kg) was 0/10 and the died/survived animals ([2]; day 2, glutaryl histamine 30 mg/kg) was 0/10. The died/survived animals ([2]; day 2, glutaryl histamine 45 mg/kg) was 0/10, the died/survived animals ([2]; day 3, glutaryl histamine 15 mg/kg) was 0/10 and the died/survived animals ([2]; day 3, glutaryl histamine 30 mg/kg) was 0/10. The died/survived animals ([2]; day 3, glutaryl histamine 45 mg/kg) was 1/9, the died/survived animals ([2]; day 4, glutaryl histamine 15 mg/kg) was 1/9 and the died/survived animals ([2]; day 4, glutaryl histamine 30 mg/kg) was 1/9. The died/survived animals ([2]; day 4, glutaryl histamine 45 mg/kg) was 2/8, the died/survived animals ([2]; day 5, glutaryl histamine 15 mg/kg) was 2/8 and the died/survived animals ([2]; day 5, glutaryl histamine 30 mg/kg) was 3/7. The died/survived animals ([2]; day 5, glutaryl histamine 45 mg/kg) was 4/6, the died/survived animals ([2]; day 6, glutaryl histamine 15 mg/kg) was 3/7 and the died/survived animals ([2]; day 6, glutaryl histamine 30 mg/kg) was 4/6. For the same compound, the died/survived animals ([2]; day 6, glutaryl histamine 45 mg/kg) was 5/5, the died/survived animals ([2]; day 7, glutaryl histamine 15 mg/kg) was 4/6 and the died/survived animals ([2]; day 7, glutaryl histamine 30 mg/kg) was 6/4. For the same compound, the died/survived animals ([2]; day 7, glutaryl histamine 45 mg/kg) was 7/3, the died/survived animals ([2]; day 8, glutaryl histamine 15 mg/kg) was 6/4 and the died/survived animals ([2]; day 8, glutaryl histamine 30 mg/kg) was 7/3. The died/survived animals ([2]; day 8, glutaryl histamine 45 mg/kg) was 8/2, the died/survived animals ([2]; day 9, glutaryl histamine 15 mg/kg) was 7/3 and the died/survived animals ([2]; day 9, glutaryl histamine 30 mg/kg) was 7/3. For the same compound, the died/survived animals ([2]; day 9, glutaryl histamine 45 mg/kg) was 8/2, the died/survived animals ([2]; day 10, glutaryl histamine 15 mg/kg) was 8/2 and the died/survived animals ([2]; day 10, glutaryl histamine 30 mg/kg) was 7/3. The died/survived animals ([2]; day 10, glutaryl histamine 45 mg/kg) was 8/2, the “Mortality rate (%)” value ([2]; glutaryl histamine 15 mg/kg) was 80% and the “Survival rate (%)” value ([2]; glutaryl histamine 15 mg/kg) was 20%. The “Mortality rate (%)” value ([2]; glutaryl histamine 30 mg/kg) was 70%, the “Survival rate (%)” value ([2]; glutaryl histamine 30 mg/kg) was 30% and the “Mortality rate (%)” value ([2]; glutaryl histamine 45 mg/kg) was 80%. The “Survival rate (%)” value ([2]; glutaryl histamine 45 mg/kg) was 20%.

— patent US20170143674A1, “Use of Glutaryl Histamine for the Treatment of Respiratory Tract Diseases” (LTD "VALENTA-INTELLEKT", priority 2011, published 2017)
